From article PMC6372667 (Experimental & Molecular Medicine, 2019)
Where two headings read alike, the source gives them in different places.

Experiments:
[1] = molecular target: T1, BACE1 (human recombinant β-secretase) (Homo sapiens, UniProt P56817); test: In vitro BACE1 FRET enzyme assay; assay type: biochemical
Text: (§1) BACE1 (human recombinant β-secretase) ([…]) and the BACE1 FRET (fluorescence resonance energy transfer) assay kit Red were purchased from ThermoFisher Scientific (P2985; Waltham, MA, USA). […] For the cell culture experiment, Dulbecco’s modified Eagle’s medium (DMEM), Opti-MEM, fetal bovine serum (FBS), and penicillin/streptomycin were obtained from Capricorn Scientific (Ebsdorfergrund, Germany). β-secretase inhibitor III (β-SI) was purchased from Calbiochem (Darmstadt, Germany). The protease inhibitor mixture (a mixture of AEBSF, pepstatin A, E-64, bestain, leupeptin, and aprotinin) was purchased from Sigma-Aldrich (St. Louis, MO, USA). Enzyme-linked immunosorbent assay (ELISA) kits for Aβ40 and Aβ42 were obtained from IBL (Kunma, Japan). All chemicals and solvents used were reagent grade, purchased from commercial sources, and used as received.
The BACE1 FRET assay was carried out according to the manufacturer’s instructions with slight modifications as previously described. The assay was performed in a […] black plate using a multi-pipette.

Electric eel AChE [2] = molecular target: T2, Electric eel AChE (Electrophorus electricus, UniProt O42275); test: In vitro cholinesterase enzyme assay (Ellman), AChE; assay type: biochemical
T2 construct: purchased Sigma-Aldrich Co
T2 sequence (O42275 24-633): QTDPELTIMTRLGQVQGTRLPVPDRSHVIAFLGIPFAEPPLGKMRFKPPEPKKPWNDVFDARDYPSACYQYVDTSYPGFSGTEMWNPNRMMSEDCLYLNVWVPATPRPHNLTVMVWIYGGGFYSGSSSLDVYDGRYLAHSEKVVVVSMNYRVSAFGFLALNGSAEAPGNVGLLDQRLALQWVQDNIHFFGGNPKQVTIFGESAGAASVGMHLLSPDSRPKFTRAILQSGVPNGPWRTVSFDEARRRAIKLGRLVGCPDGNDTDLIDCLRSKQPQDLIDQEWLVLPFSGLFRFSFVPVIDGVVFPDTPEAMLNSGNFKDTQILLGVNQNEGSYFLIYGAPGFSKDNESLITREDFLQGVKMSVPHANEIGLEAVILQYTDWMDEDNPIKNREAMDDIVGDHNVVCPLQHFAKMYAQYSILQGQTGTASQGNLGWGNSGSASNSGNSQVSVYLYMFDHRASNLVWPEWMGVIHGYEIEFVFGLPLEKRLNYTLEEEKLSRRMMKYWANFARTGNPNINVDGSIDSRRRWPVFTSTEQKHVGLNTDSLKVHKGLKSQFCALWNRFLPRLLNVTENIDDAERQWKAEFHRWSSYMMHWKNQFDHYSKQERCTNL
Text: as §1
(§2) The inhibitory activities of pterosin derivatives against cholinesterases were measured using the method developed by Ellman et al.[32]. The reaction mixture contained 140 μL of sodium phosphate buffer (pH 8.0), 20 μL of test sample solution (final concentration of the compound 100 μM), and 20 μL of AChE or BChE solution, mixed and incubated for 15 min at room temperature. […] The reactions were initiated following the addition of 10 μL of DTNB and 10 μL of acetyl thiocholine iodide for the AChE assay or butyryl thiocholine chloride for the BChE assay in 96-well microplates, which were incubated for 15 min.

horse serum BChE [3] = molecular target: T3, horse serum BChE (Equus caballus, UniProt P81908); test: In vitro cholinesterase enzyme assay (Ellman), BChE; assay type: biochemical
T3 construct: horse serum BChE (EC 3.1.1.8); purchased Sigma-Aldrich Co; host or cells: horse serum
T3 sequence (P81908 whole entry): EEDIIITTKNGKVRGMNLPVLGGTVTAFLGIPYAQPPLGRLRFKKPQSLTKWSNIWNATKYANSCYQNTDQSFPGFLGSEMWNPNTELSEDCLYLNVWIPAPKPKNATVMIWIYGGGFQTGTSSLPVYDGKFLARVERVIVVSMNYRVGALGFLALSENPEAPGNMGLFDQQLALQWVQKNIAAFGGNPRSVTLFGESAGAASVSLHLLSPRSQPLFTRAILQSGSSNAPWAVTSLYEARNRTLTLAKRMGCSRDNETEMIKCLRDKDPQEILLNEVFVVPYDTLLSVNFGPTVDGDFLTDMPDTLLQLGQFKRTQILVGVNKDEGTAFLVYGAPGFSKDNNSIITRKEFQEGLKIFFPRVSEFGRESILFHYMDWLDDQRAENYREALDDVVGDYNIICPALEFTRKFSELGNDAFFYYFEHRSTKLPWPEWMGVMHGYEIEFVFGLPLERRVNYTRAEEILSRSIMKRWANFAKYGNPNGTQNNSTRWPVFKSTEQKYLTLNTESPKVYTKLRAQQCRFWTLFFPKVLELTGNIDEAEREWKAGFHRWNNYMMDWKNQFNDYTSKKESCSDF
Text: as §1, §2

[4] = molecular target: T1, BACE1 (human recombinant β-secretase); test: Kinetic analysis of BACE1 inhibition (Dixon and Lineweaver−Burk plots); assay type: biochemical; conditions: for Inhibition type BACE1: Dixon and Lineweaver−Burk plots
Procedure: (§3) The Ki was determined by interpretation of the Dixon plot, with the value of the x-axis intercept taken as −Ki.
Dixon plots for BACE1 inhibition by pterosin derivatives.
Dixon plots for BACE1 inhibition by pteroside derivatives.

Electric eel AChE [5] = molecular target: T2, Electric eel AChE; test: Kinetic analysis of AChE inhibition (Dixon and Lineweaver−Burk plots); assay type: biochemical; conditions: for Inhibition type AChE: Dixon and Lineweaver−Burk plots
Procedure: as §3
Dixon plots for AChE inhibition by pterosin derivatives. (2S,3R)-Pterosin C (A), (2R,3R)-pterosin C (B), and (2R)-pterosin B (C) were tested in the presence of substrate concentrations of 0.1 mM (●), 0.3 mM (○), and 0.6 mM (▼). Lineweaver-Burk plots for AChE inhibition were generated with inhibitor concentrations of 0 µM (Δ), 4 µM (▼), 20 µM (○), and 100 µM (●) for (2S,3R)-pterosin C (D) and (2R,3R)-pterosin C (E); and 0 µM (Δ), 2 µM (▼), 10 µM (○), and 50 µM (●) for (2R)-pterosin B (F).
Dixon plots for AChE inhibition by pteroside derivatives. (2R)-pteroside B (A), (2R,3R)-pteroside C (B), and (3S)-pteroside D (C) were tested in the presence of substrate concentrations of 0.1 mM (●), 0.3 mM (○), and 0.6 mM (▼). Lineweaver-Burk plots for AChE inhibition were generated with inhibitor concentrations of 0 µM (Δ), 0.8 µM (▼), 4 µM (○), and 20 µM (●) for (2R)-pteroside B (D), (2R,3R)-pteroside C (E), and (3S)-pteroside D (F).

horse serum BChE [6] = molecular target: T3, horse serum BChE; test: Kinetic analysis of BChE inhibition (Dixon and Lineweaver−Burk plots); assay type: biochemical; conditions: for Inhibition type BChE: Dixon and Lineweaver−Burk plots
Procedure: as §3
Dixon plots for BChE inhibition by pterosin derivatives. (2S,3R)-Pterosin C (A), (2R,3R)-pterosin C (B), and (2R)-pterosin B (C) were tested in the presence of substrate concentrations of 0.2 mM (●), 0.4 mM (○), and 0.8 mM (▼).
Dixon plots for BChE inhibition by pteroside derivatives. (2R)-pteroside B (A), (2R,3R)-pteroside C (B), and (3S)-pteroside D (C) were tested in the presence of substrate concentrations of 0.2 mM (●), 0.4 mM (○), and 0.8 mM (▼). Lineweaver-Burk plots for BChE inhibition were generated with inhibitor concentrations of 0 µM (Δ), 4 µM (▼), 20 µM (○), and 100 µM (●) for (2R)-pteroside B (D); 0 µM (Δ), 0.8 µM (▼), 4 µM (○), and 20 µM (●) for (2R,3R)-pteroside C (E) and (3S)-pteroside D (F).

in vitro = in vitro ADME; conditions: for Papp at 4 h, 25 µg/mL: pig, PAMPA, read-out: PAMPA-BBB permeability Pe
Procedure: PAMPA (parallel artificial membrane permeation assay) was used as a high-throughput assay to predict BBB permeation. Porcine polar brain lipid (PBL) was used as an artificial membrane to predict BBB permeation. Initially, the test compound was dissolved in DMSO at 5 mg/mL. This compound stock solution (10 µL) was diluted 200-fold in a universal buffer at pH 7.4 and mixed with a multi 8-channel pipette to obtain the secondary stock solution (final concentration 25 µg/mL). The secondary stock solution (200 µL) was placed in the donor wells. The filter membrane was coated with PBL in dodecane (4 mL volume of 20 mg/mL PBL in dodecane), and 5 µL of BBB-1 lipid solution was spread on PBL by pipette. The acceptor well was filled with […] of Acceptor Sink Buffer. The acceptor filter plate was cautiously positioned on the donor plate to assemble a “sandwich” (comprising an aqueous acceptor, artificial lipid membrane and aqueous donor with test compound on the top, middle and bottom, respectively). The test compound diffuses from the donor well to the acceptor well through the lipid membrane. After 4 h of incubation at pH 7.4 and 25 °C, the concentration of the compound in the acceptor, donor, reference and blank wells was estimated with a UV plate reader, Epoch Microplate Spectrophotometer (BioTek Instruments, Inc., Winooski, VT, USA). […] Samples were analyzed in quadruplets, and the average of the four runs was reported. To monitor the consistency of the analysis set, quality control standards were run with each sample set.
PAMPA-BBB, an in vitro artificial membrane permeability assay for the BBB, is one of the most reliable physicochemical screening tools in the early stage discovery of CNS-targeted drugs. The PAMPA-BBB system models the transcellular passive diffusion of chemicals across the BBB and measures strictly passive transport mechanisms via an artificial lipid membrane on effective permeability (Pe, cm/s).

[7] = tested on: SH-SY5Y human neuroblastoma; test: MTT cytotoxicity assay, SH-SY5Y; assay type: cell-based; conditions: 24 h
Procedure: (§4) Cytotoxicity was assessed using the MTT assay. Briefly, the cells were seeded into a 96-well plate at a density of 1×10^5 cells per well in 100 µL of corresponding media and incubated at 37 °C in an incubator under 5% CO2 tension for 24 h. The culture media were then replaced with 100 µL of fresh serum-free media in the presence of varied concentrations of pterosin derivatives, and cells were incubated for an additional 24 h. The control was treated with an equal amount of DMSO present in the assay for a 5 mM concentration. Then, 100 µL of MTT solution (0.5 mg/mL in Phosphate Buffered Saline (PBS)) was added to each culture. To measure the proportion of surviving cells, the media were replaced with 100 µL of DMSO 2 h after the administration of MTT solution. The absorbance was measured at 570 nm using a spectrophotometric plate reader (Molecular Devices, Sunnyvale, CA, USA).

C6 rat glial cells = test: MTT cytotoxicity assay, C6; assay type: cell-based; conditions: 24 h
Procedure: as §4

[8] = tested on: NIH3T3 mouse embryo fibroblasts; test: MTT cytotoxicity assay, NIH3T3; assay type: cell-based; conditions: 24 h
Procedure: as §4

B16F10 mouse melanoma = test: MTT cytotoxicity assay, B16F10; assay type: cell-based; conditions: 24 h
Procedure: as §4

[9] = mean ± S.D. of three experiments
[10] = mean ± S.D. of three experiments, read-out: IC50 AChE
[11] = mean ± S.D. of three experiments, read-out: IC50 BChE
[12] = 4 h, pH 7.4, 25 °C, mean ± SD of quadruple experiments

T1 sequence (P56817 46-501): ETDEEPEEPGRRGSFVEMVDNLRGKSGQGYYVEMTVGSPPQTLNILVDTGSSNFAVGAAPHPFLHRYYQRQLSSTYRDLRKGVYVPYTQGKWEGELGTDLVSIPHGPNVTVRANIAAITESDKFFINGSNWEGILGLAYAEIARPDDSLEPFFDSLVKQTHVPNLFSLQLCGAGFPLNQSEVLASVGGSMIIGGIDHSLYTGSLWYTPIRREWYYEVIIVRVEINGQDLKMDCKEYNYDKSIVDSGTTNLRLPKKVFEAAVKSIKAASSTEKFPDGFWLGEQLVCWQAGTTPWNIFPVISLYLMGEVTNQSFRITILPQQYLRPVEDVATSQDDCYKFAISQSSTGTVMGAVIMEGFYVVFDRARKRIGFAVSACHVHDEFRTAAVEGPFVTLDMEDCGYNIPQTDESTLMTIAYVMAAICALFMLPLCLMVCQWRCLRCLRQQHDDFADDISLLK

| SMILES | IC50 (Electric eel AChE [2]) | IC50 (horse serum BChE [3]) | LD50 Based on MTT Assay, SY-SY5Y [7] | LD50 Based on MTT Assay, C6 (C6 rat glial cells) | LD50 Based on MTT Assay, NIH3T3 [8] | LD50 Based on MTT Assay, B16F10 (B16F10 mouse melanoma) | IC50 [1, 9] | IC50 (Electric eel AChE [2]; [10]) | IC50 (horse serum BChE [3]; [11]) | Papp at 4 h, 25 µg/mL (in vitro; [12]) | other results |
| --- | --- | --- | --- | --- | --- | --- | --- | --- | --- | --- | --- |
| Cc1cc2c(c(C)c1CCO)C(=O)[C@H](C)[C@H]2O [(2R,3R)-Pterosin C, (2R,3R)-pterosin C] | 23.2 ± 4.6 µM | 20.3 ± 0.88 µM | 719 ± 25 µM | 694 ± 9.7 µM | >5,000 µM | >5,000 µM | – | – | – | – | IC50 [1]: 26.2 ± 6.3 µM; Ki [4]: 27.6 µM; Inhibition type BACE1 [4]: Mixed-type; Ki (Electric eel AChE [5]): 29.6 µM; Inhibition type AChE (Electric eel AChE [5]): Noncompetitive; Ki (horse serum BChE [6]): 4.77 µM; Inhibition type BChE (horse serum BChE [6]): Mixed-type; log Pe (in vitro): -5.70; Papp at 4 h, 25 µg/mL (in vitro; pH 7.4): 1.98 ± 0.17 ×10⁻⁶ cm/s |
| Cc1cc2c(c(C)c1CCO)C(=O)C(C)(COC1OC(CO)C(O)C(O)C1O)C2 [(2S)-Pteroside A2, (2S)-pteroside A2] | – | – | 1,010 ± 60 µM | >5,000 µM | >5,000 µM | >5,000 µM | 94.4 ± 4.5 µM | 39.3 ± 1.9 µM | 119 ± 2.5 µM | 0.54 ± 0.51 ×10⁻⁶ cm/s | – |
| Cc1c(CCO[C@@H]2O[C@H](CO)[C@@H](O)[C@H](O)[C@H]2O)c(CO)cc2c1C(=O)[C@@H](C)C2 [(2S)-Pteroside P, (2S)-pteroside P] | – | – | 1,090 ± 99 µM | >5,000 µM | >5,000 µM | >5,000 µM | > 125 µM | 57.5 ± 3.2 µM | 33.2 ± 3 µM | – | IC50 BACE1 [1, 9]: inactive at the concentrations tested |
| Cc1cc2c(c(C)c1CCO)C(=O)[C@](C)(CO)C2 [(2S)-Pterosin A, (2S)-pterosin A] | – | – | 1,210 ± 110 µM | >5,000 µM | >5,000 µM | 522 ± 25 µM | > 125 µM | 56.7 ± 2.6 µM | 67.3 ± 3.3 µM | 6.26 ± 0.24 ×10⁻⁶ cm/s | IC50 BACE1 [1, 9]: inactive at the concentrations tested; log Pe (in vitro; PAMPA-BBB): -5.20; BBB permeation class (in vitro; PAMPA-BBB, classified by Pe, given in words): high BBB permeation |
| Cc1cc2c(c(C)c1CCO[C@@H]1O[C@H](CO)[C@@H](O)[C@H](O)[C@H]1O)C(=O)[C@@H](C)[C@H]2O [(2S,3R)-Pteroside C, (2S,3R)-pteroside C] | – | – | 711 ± 35 µM | >5,000 µM | >5,000 µM | >5,000 µM | 28.9 ± 2.2 µM | 9.17 ± 0.82 µM | 13 ± 0.14 µM | 0.29 ± 0.34 ×10⁻⁶ cm/s | – |
| Cc1cc2c(c(C)c1CCO)C(=O)[C@@H](C)[C@H]2O [(2S,3R)-Pterosin C, (2S,3R)-pterosin C] | 12.8 ± 0.79 µM | 44.3 ± 1 µM | 2,940 ± 260 µM | >5,000 µM | >5,000 µM | >5,000 µM | – | – | – | – | IC50 [1]: 23.1 ± 2.9 µM; Ki [4]: 33.8 µM; Inhibition type BACE1 [4]: Noncompetitive; Ki (Electric eel AChE [5]): 16.3 µM; Inhibition type AChE (Electric eel AChE [5]): Mixed-type; Ki (horse serum BChE [6]): 29.9 µM; Inhibition type BChE (horse serum BChE [6]): Noncompetitive; log Pe (in vitro): -5.65; Papp at 4 h, 25 µg/mL (in vitro; pH 7.4): 2.34 ± 0.81 ×10⁻⁶ cm/s |
| Cc1cc2c(c(C)c1CCO[C@@H]1O[C@H](CO)[C@@H](O)[C@H](O)[C@H]1O)C(=O)C(C)(C)C2 [Pteroside Z, pteroside Z] | – | – | 1,430 ± 210 µM | 2,130 ± 62 µM | >5,000 µM | >5,000 µM | 53.3 ± 1.2 µM | 24.1 ± 1.1 µM | 5.31 ± 0.19 µM | 0.61 ± 0.17 ×10⁻⁶ cm/s | – |
| Cc1cc2c(c(C)c1CCO)C(=O)C(C)(C)C2 [Pterosin Z, pterosin Z] | 46.5 ± 3.4 µM | 80.1 ± 6.8 µM | 495 ± 24 µM | 1,850 ± 65 µM | 553 ± 37 µM | 618 ± 71 µM | 80 ± 5.9 µM | – | – | – | – |
